Results taken from patent US20230174526A1, “BENZOTHIAZOLYL BIARYL COMPOUND, AND PREPARATION METHOD AND USE” (SHANGHAI RINGENE BIOPHARMA CO., LTD., priority 2020, published 2023).
pIC50: −log10 of the molar value.

Legend:
[1] = Metabolic stability assay, rat liver microsomes; type: in vitro ADME; conditions: rat liver microsomes 0.5 mg/mL, 1 µM compound, read-out: Liver microsomal stability (T½ /min) Rat
Protocol: (§1) Metabolic stability assay: A warm incubation for metabolic stability was performed with a system of 150 µL of liver microsomes (final concentration 0.5 mg/mL) containing NADPH (final concentration 1 mM), 1 µM of the test compound and positive control midazolam or negative control atenolol, and the reaction was terminated with acetonitrile containing tinidazole at 0 min, 5 min, 10 min and 30 min, respectively. The reaction was vortexed for 10 min and centrifuged at 15000 rmp for 10 min, and 50 µL of supernatant was taken into the 96-well plate for sampling. The metabolic stability of the compound was calculated by measuring the relative reduction of the drugs.

[2] = Metabolic stability assay, mouse liver microsomes; type: in vitro ADME; conditions: mouse liver microsomes 0.5 mg/mL, 1 µM compound, read-out: Liver microsomal stability (T½ /min) Mouse
Protocol: as §1

[3] = system: MiaPaca-2 cells (pancreatic cancer); assay: Proliferation test method 1 (2D, MTT), MiaPaca-2; type: cell-based; conditions: Homo sapiens, MIA PaCa-2, 2D, 5-7 days, read-out: IC50/nM proliferation inhibitory activity on MiaPaca-2 cells
Protocol: Test method 1 (2D):NCI-H358 (lung cancer) and MiaPaca-2 cells (pancreatic cancer) cells (100 µL/well, 20,000 cells/mL) were inoculated in 96-well culture plates supplemented with 10% fetal bovine serum and 1% penicillin/streptomycin sulfate, respectively.Using 0.5% dimethyl sulfoxide as a blank control, cells were treated with a solution of the compound to be tested at a starting concentration of 10 µM, tripled diluted testing solution of the compound in eight gradients were used to treat cells, and then incubated in a 5% CO2 incubator for a certain period of time (5-7 days).At the end of incubation, 10 µL of MTT stock solution (5 mg/mL) was added to each well.The culture plates were incubated at 37° C. for 4 h and then the medium was removed.Dimethyl sulfoxide (100 µL) was added to each well and then shaken sufficiently. The absorbance of the product formazanwas measured at 570 nm on the Thermo Scientific Varioskan Flash multimode reader.IC50 values were obtained by fitting dose-response data into a three-parameter nonlinear regression model using GraphPad Prism 6.0 software.

CYP1A2 = target: T1, CYP1A2 (Homo sapiens, UniProt P05177); assay: Direct inhibition test (DI test), CYP1A2; type: in vitro ADME; conditions: human liver microsomes
T1 construct: a system of 100 µL of human liver microsomes (final concentration 0.2 mg/mL); from tissue; host or cells: human liver microsomes
T1 sequence (P05177 1-516): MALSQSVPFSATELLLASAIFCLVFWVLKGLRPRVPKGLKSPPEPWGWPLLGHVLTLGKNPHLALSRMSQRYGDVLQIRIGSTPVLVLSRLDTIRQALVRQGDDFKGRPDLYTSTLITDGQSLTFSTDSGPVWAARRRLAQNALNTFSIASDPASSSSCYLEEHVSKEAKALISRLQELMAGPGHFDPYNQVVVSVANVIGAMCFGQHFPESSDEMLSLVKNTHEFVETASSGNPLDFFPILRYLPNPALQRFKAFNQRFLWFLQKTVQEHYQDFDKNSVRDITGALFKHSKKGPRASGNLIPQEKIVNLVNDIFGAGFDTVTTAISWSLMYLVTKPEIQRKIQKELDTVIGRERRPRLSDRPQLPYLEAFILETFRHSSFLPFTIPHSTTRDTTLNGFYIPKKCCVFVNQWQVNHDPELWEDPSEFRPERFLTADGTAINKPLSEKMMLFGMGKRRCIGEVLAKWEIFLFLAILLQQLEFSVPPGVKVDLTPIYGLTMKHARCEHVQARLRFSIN
Protocol: Direct inhibition test (DI test): direct inhibition warm incubation was performed with a system of 100 µL of human liver microsomes (final concentration 0.2 mg/mL) containing NADPH (final concentration 1 mM), 10 µM compound, positive inhibitor cocktail (ketoconazole 10 µM, quinidine 10 µM, sulfobenzyrazole 100 µM, α-naphthoflavone 10 µM, tranylcypromine 1000 µM), a negative control (BPS with 0.1% DMSO) and a mixed probe substrate (midazolam 10 µM, testosterone 100 µM, dextromethorphan 10 µM, diclofenac 20 µM, phenacetin100 µM, mephenytoin100 µM), and the reaction was terminated after a warm incubation for 20 min.The relative enzyme activity was calculated by measuring the relative amount of metabolites produced.

hERG potassium channels = hERG potassium channels (Homo sapiens, UniProt Q12809); assay: hERG inhibition test; type: cell-based; conditions: highest test concentration 40 µM
Sequence of hERG potassium channels (Q12809 whole entry): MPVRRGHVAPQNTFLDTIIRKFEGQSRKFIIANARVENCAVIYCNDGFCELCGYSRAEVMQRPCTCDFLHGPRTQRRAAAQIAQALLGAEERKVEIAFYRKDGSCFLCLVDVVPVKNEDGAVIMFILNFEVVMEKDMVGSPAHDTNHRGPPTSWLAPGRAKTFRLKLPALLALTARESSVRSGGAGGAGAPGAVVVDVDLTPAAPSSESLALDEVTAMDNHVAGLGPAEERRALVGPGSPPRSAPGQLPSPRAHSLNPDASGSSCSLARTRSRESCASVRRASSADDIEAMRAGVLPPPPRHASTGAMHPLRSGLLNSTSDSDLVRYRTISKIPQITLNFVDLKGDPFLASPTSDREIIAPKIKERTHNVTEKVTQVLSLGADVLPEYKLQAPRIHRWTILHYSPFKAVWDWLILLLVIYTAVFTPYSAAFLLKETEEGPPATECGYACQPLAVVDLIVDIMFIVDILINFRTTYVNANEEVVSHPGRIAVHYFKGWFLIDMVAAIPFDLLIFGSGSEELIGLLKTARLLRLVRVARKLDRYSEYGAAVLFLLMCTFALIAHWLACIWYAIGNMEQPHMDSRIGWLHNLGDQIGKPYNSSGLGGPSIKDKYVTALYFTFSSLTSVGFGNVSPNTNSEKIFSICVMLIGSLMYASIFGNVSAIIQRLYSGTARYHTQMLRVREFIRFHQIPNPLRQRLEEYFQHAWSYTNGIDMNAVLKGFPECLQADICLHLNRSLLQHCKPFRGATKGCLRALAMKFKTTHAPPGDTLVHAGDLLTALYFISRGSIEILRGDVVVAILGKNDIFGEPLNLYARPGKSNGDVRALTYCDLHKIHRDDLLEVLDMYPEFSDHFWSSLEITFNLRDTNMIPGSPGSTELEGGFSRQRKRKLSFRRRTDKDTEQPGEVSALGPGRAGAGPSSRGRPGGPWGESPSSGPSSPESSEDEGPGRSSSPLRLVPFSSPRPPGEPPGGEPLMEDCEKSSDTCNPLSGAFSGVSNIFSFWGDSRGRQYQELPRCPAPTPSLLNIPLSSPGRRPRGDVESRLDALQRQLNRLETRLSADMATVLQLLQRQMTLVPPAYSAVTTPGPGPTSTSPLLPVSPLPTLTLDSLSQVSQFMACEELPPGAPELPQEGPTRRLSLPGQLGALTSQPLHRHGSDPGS

[4] = Metabolic stability assay, human liver microsomes; type: in vitro ADME; conditions: human liver microsomes 0.5 mg/mL, 1 µM compound, read-out: Liver microsomal stability (T½ /min) human
Protocol: as §1

[5] = Metabolic stability assay, monkey liver microsomes; type: in vitro ADME; conditions: monkey liver microsomes 0.5 mg/mL, 1 µM compound, read-out: Liver microsomal stability (T½ /min) monkey
Protocol: as §1

[6] = system: transplanted tumor of MiaPaca-2, NCI-H358 tumor cells; assay: Growth inhibition of transplanted tumor in nude mice; type: in vivo; conditions: 10 mg/kg orally, after two weeks of administration
Protocol: The tumor tissues in the peak growth period were cut into 1.5 mm^3 and inoculated into the right axillary subcutis of nude mice under aseptic conditions. The subcutaneous transplanted tumors of nude mice were measured by vernier calipers for the diameter of the transplanted tumors, and the animals were randomly grouped when the average volume of the tumors reached about 130 mm^3.The example compound (injection water containing 1% Tween 80 was prepared to the desired concentration and then left to be used) was administered orally at the given dose daily for three weeks, and the solvent control group was given an equal amount of solvent. The transplanted tumor diameter was measured twice a week throughout the experiment, and the mice were weighed at the same time.The tumor volume (TV) was calculated by the formula: TV = ½×a×b^2, where a and b are the length and width, respectively.

NCI-H358 cells = assay: Proliferation test method 2 (3D, Cell Titer Glo 3D), NCI-H358; type: cell-based; conditions: Homo sapiens, NCI-H358, 96 h, read-out: IC50 cell proliferation inhibitory activity against NCI-H358
Protocol: (§2) Test method 2 (3D): The tumor cells in the logarithmic growth phase were diluted with culture solution to a certain concentration and inoculated on the 96-well plate on the ultra-low attachment surface, and the culture medium was 80 µL/well. Cells were incubated overnight at 37° C. in a humidity chamber. On the second day, a series of diluted test compounds (10 concentrations, 3 times dilution) were added to the plate, 20 µL/well, incubated in an incubator for 96h.The plates are removed and placed at room temperature and incubated with an equal volume of Cell Titer Glo®3D reagent for 1 h. The signal is detected by the En Vision™ plate reader. […] A four-parameter nonlinear regression curve was fitted to the percent inhibition for each concentration of the compound and the IC50 was calculated.

MiaPaca-2 cells = assay: Proliferation test method 2 (3D, Cell Titer Glo 3D), MiaPaca-2; type: cell-based; conditions: Homo sapiens, MIA PaCa-2, 96 h, read-out: IC50 cell proliferation inhibitory activity against MiaPaca-2
Protocol: as §2

SMILES	half-life at 1 µM [1] [min]	pIC50 (CYP1A2)	half-life at 1 µM [4] [min]	half-life at 1 µM [5] [min]	pIC50 (NCI-H358 cells)	pIC50 (MiaPaca-2 cells)	half-life at 1 µM [2] [min]	IC50 [3] [nM]	pIC50 (hERG potassium channels)	tumor regression [6]
C=CC(=O)N1C[C@@H]2C(=O)N(C)c3cnc4c(F)c(-c5ccc(F)c6sc(N)nc56)c(Cl)cc4c3N2C[C@H]1C (single isomer, unassigned) [Example 17-1]	> 30	< 5.00	–	–	–	–	> 30	24.8	< 4.70	–
C=CC(=O)N1CCN(c2nc(OC[C@@H]3CCCN3C)nc3c(F)c(-c4ccc(F)c5sc(N)nc45)c(Cl)cc23)C[C@H]1C [Example 11, 1-((2R)-4-(7-(2-Amino-7-Fluorobenzo [d] Thiazol-4-yl) -6-Chloro-8-Fluoro-2-(((S)-1-Methylpyrrolidin-2-yl) Methoxy) Quinazolin-4-yl)-2-Methylpiperazin-1-yl) Prop-2-En-1-One]	> 30	< 5.00	> 30	–	> 6.70	> 6.70	–	–	< 4.70	–
C=CC(=O)N1CCN(c2c(C#N)c(N3CC(N(C)C)C3)nc3c(F)c(-c4ccc(F)c5sc(N)nc45)c(Cl)cc23)CC1 [Example 21, 4-(4-acryloyl Piperazin-1-yl)-7-(2-Amino-7-Fluorobenzo [d] Thiazol-4-yl) -6-Chloro-2-(3-(Dimethylamino) Azetidine-1-yl)-8-Fluoroquinolin-3 -Cyano]	> 30	< 5.00	–	> 30	–	–	–	–	< 4.70	–

More lines, main results first:

half-life at 1 µM [1] [min]	pIC50 (CYP1A2)	half-life at 1 µM [4] [min]	half-life at 1 µM [5] [min]	pIC50 (NCI-H358 cells)	pIC50 (MiaPaca-2 cells)	SMILES	half-life at 1 µM [2] [min]	IC50 [3] [nM]	pIC50 (hERG potassium channels)	tumor regression [6]
–	< 5.00	> 30	> 30	–	–	C=CC(=O)N1CCN(c2c(C#N)c(OC[C@@H]3CCCN3C)nc3c(F)c(-c4ccc(F)c5sc(N)nc45)c(Cl)cc23)CC1 [Example 3, 4-(4-Piperazinylacryloylpiperazin-1-yl)-7-(2-Amino-7-Fluorobenzo[d]Thiazol-4-yl)-6-Chloro-8-Fluoro-2-(((S)-1-Methylpyrrolidin-2-Yl)Methoxy)Quinoline-3-Cyano]	–	–	< 4.70	–
> 30	< 5.00	–	> 30	> 6.70	> 6.70	C=CC(=O)N1CCN(c2c(C#N)cnc3c(F)c(-c4ccc(F)c5sc(N)nc45)c(Cl)cc23)CC1 [Example 8]	> 30	–	< 4.70	tumor regression was achieved
